Like-named read-outs stand apart in the source and are kept apart here.
Legend:
[1] = Size distribution by dynamic light scattering; assay type: physicochemical; conditions: DLS, mHBSS pH 5, 25 °C, 180 µM insulin or PTH(1-34), alone or mixed with 720 µM penetratin, N = 3, mean ± SD
Experimental: Size distributions according to the distribution by volume were determined using a Zetasizer Nano ZSP (Malvern Instruments, Worcestershire, UK) equipped with a 633 nm laser at 25 °C with 10–20 runs of 10 s and N = 3.

[2] = ThT binding to supramolecular complexes, plate reader fluorescence; assay type: physicochemical; conditions: all pH-values tested (5, 6.5, 7.4); 50 µM insulin or PTH(1-34) or 200 µM penetratin alone, 100 µM ThT; N = 3
Caco-2 cell monolayers [3] = assay: In vitro stability during apical incubation on Caco-2 cell monolayers; assay type: in vitro ADME, human; conditions: 37 °C, RP-HPLC; for peptide remaining after 4 h in physical mixture with penetratin, % of initially applied: 5 µM peptide + 20 µM penetratin, N = 3, mean ± SD
Experimental: (§1) At 80% confluency the cells were sub-cultured by detaching them from the culture flasks by trypsin-EDTA treatment. […] [17]. Briefly, The Caco-2 cell monolayers were washed twice apical and basolateral with 37 °C hHBSS and equilibrated to room temperature in the last washing volume. The transepithelial electrical resistance (TEER) was measured using an EVOM equipped with an Endohm-12 cup (World Precision Instruments, Sarasota, FL, USA) to validate the barrier integrity of the monolayer. Following equilibration to 37 °C the filter inserts were transferred to empty 6-well plates in order to block permeation across the monolayer. […] The kinetics of the metabolic degradation was evaluated by analytical RP-HPLC as described under the ultracentrifugation procedure.

Caco-2 cell monolayers [4] = assay: In vitro transepithelial permeation across Caco-2 cell monolayers; assay type: in vitro ADME, human; conditions: Caco-2, apical to basolateral, 3 h, 37 °C, ELISA/EIA, N = 3, n = 3; for effect on permeation of lowering the sample pH from 6.5 or 7.4 to pH 5, without penetratin (in words): 5 µM peptide alone
Experimental: At 80% confluency the cells were sub-cultured by detaching them from the culture flasks by trypsin-EDTA treatment. […] Caco-2 cell monolayers were washed twice apical and basolateral with 37 °C hHBSS. The cells were equilibrated to room temperature in the last washing volume before TEER was measured using an EVOM equipped with an Endohm-12 cup (World Precision Instruments, Sarasota, FL, USA) and equilibration to 37 °C. […] The permeation study was initiated by careful transfer of the filter inserts to fresh 12-well plates containing 1 mL 37 °C hHBSS. The experiment was performed on a 37 °C shaking table (50 rpm). 100 µL test samples were withdrawn from the basolateral compartment at time-points 0, 60, 120 and 180 min and stored at −20 °C. The sample volume was immediately replaced with 37 °C hHBSS.

Male Sprague Dawley rats = assay: In situ rat intestinal injection: blood glucose; assay type: in vivo; conditions: intraintestinal
Experimental: Male Sprague Dawley rats (Taconic, Ejby, Denmark) weighing ~250 g were allowed to acclimatize for at least 8 days at 20–22 °C and 45–65% humidity with free access to water and food. The rats were fasted for 18 h prior to surgery. Hypnorm (fentanyl 0.315 mg/mL and fluanisone 10 mg/mL) (Glostrup apotek, Glostrup, Denmark) and Dormicum (midazolam 5 mg/mL) (Nomeco, Copenhagen, Denmark) were mixed 1:1 (v/v) with ultrapure water and used for anesthesia. The initial dose was 2 mL/kg and subsequent doses of 1 mL/kg were given every 20 min within the first hour and thereafter every 40 min to keep the animals anaesthetized. All doses of anesthetics were administered subcutaneously in the neck region. The abdominal wall was cut open and the small intestine localized. A 10 cm PE-50 catheter (Smiths Medical, Keene, NH, USA) was inserted into the middle of the intestine and secured with a 3/0 suture (Braun, Tuttlingen, Germany). Care was taken not to interrupt the mesenteric blood flow. The intestine was hydrated with 1–2 mL isotonic sodium chloride solution before the rat abdominal wall was closed with 9 mm clips using the AutoClip Wound Closure System (Alzet, Cupertino, CA, USA). The animal was left on a 37 °C heating plate (Scandidact, Kvistgaard, Denmark) for 30 min prior dosing of the test samples to allow normalization of the potentially elevated blood glucose level resulting from stress induced by handling and surgery. […] A volume of 200 µL air was injected immediately after dosing to fully empty the catheter into the intestinal lumen. 200 µL blood samples were collected from the tail vein at time points 0, 5, 15, 30, 45, 60, 90, and 120 min into EDTA-coated microcuvette vials (Sarstedt, Nümbrecht, Germany). The blood samples were placed on ice prior isolation of the plasma by centrifugation at 2000× g at 4 °C for 10 min (Eppendorf centrifuge 5424, Eppendorf, Hamburg, Germany). Blood glucose was measured at time points of 15, 30, 45, 60, 90, and 120 min after dosing using an On-Call blood glucose meter (Acon, San Diego, CA, USA). After the final blood sampling, the animals were euthanized while still under anesthesia using 90% CO2 in O2 [19]. The abdominal wall of the rats was reopened after the experiment to ensure the catheter was still in place. Likewise, control of potential damage to the intestine was determined macroscopically. The experiments were conducted in strict compliance with the national animal research license 2009/561-1622.

[5] = In situ rat intestinal injection: plasma insulin or PTH(1-34); assay type: in vivo; conditions: intraintestinal
Experimental: 100 μL test samples were withdrawn from the basolateral compartment at time-points 0, 60, 120 and 180 min and stored at -20 °C. The sample volume was immediately replaced with 37 °C hHBSS. […] Male Sprague Dawley rats (Taconic, Ejby, Denmark) weighing ~250 g were allowed to acclimatize for at least 8 days at 20-22 °C and 45-65% humidity with free access to water and food. The rats were fasted for 18 h prior to surgery. Hypnorm (fentanyl 0.315 mg/mL and fluanisone 10 mg/mL) (Glostrup apotek, Glostrup, Denmark) and Dormicum (midazolam 5 mg/mL) (Nomeco, Copenhagen, Denmark) were mixed 1:1 (v/v) with ultrapure water and used for anesthesia. The initial dose was 2 mL/kg and subsequent doses of 1 mL/kg were given every 20 min within the first hour and thereafter every 40 min to keep the animals anaesthetized. All doses of anesthetics were administered subcutaneously in the neck region. The abdominal wall was cut open and the small intestine localized. A 10 cm PE-50 catheter (Smiths Medical, Keene, NH, USA) was inserted into the middle of the intestine and secured with a 3/0 suture (Braun, Tuttlingen, Germany). Care was taken not to interrupt the mesenteric blood flow. The intestine was hydrated with 1-2 mL isotonic sodium chloride solution before the rat abdominal wall was closed with 9 mm clips using the AutoClip Wound Closure System (Alzet, Cupertino, CA, USA). […] The blood samples were placed on ice prior isolation of the plasma by centrifugation at 2000× g at 4 °C for 10 min (Eppendorf centrifuge 5424, Eppendorf, Hamburg, Germany). Blood glucose was measured at time points of 15, 30, 45, 60, 90, and 120 min after dosing using an On-Call blood glucose meter (Acon, San Diego, CA, USA). After the final blood sampling, the animals were euthanized while still under anesthesia using 90% CO2 in O2 [19]. The abdominal wall of the rats was reopened after the experiment to ensure the catheter was still in place. Likewise, control of potential damage to the intestine was determined macroscopically. The experiments were conducted in strict compliance with the national animal research license 2009/561-1622.

[6] = no reference given; cited from earlier work
[7] = In vitro stability during apical incubation on Caco-2 cell monolayers; assay type: in vitro ADME, human; conditions: human, peptide alone, 5 µM, 37 °C, RP-HPLC, N = 3, mean ± SD, read-out: intact peptide remaining after 4 h, % of initial concentration
Experimental: as §1

[8] = Visual inspection of samples at the concentrations applied in vivo; assay type: physicochemical; conditions: PTH(1-34) mixed with penetratin
[9] = pH 5, apical incubation on Caco-2 monolayers
[10] = pH 7.4, apical incubation on Caco-2 monolayers
[11] = apical pH 5, 5 µM peptide + 20 µM penetratin
[12] = apical pH 6.5 and 7.4, 5 µM peptide + 20 µM penetratin
[13] = insulin (50 IU/kg) alone or 720 µM penetratin alone, pH 5, N = 6, mean ± SD
[14] = pH 6.5, apical incubation on Caco-2 monolayers

| ThT fluorescence above background, peptide alone (in words) [2] | Compound | peptide remaining after 4 h in physical mixture with penetratin, % of initially applied (Caco-2 cell monolayers [3]; [9]) | peptide remaining after 4 h in physical mixture with penetratin, % of initially applied (Caco-2 cell monolayers [3]; [10]) | effect on permeation of lowering the sample pH from 6.5 or 7.4 to pH 5, without penetratin (in words) (Caco-2 cell monolayers [4]) | penetratin-mediated transepithelial permeation / Papp (in words) (Caco-2 cell monolayers [4]; [11]) | penetratin-mediated transepithelial permeation / Papp (in words) (Caco-2 cell monolayers [4]; [12]) | blood glucose level, % of initial value (Male Sprague Dawley rats; [13]) | pI [6] | also measured |
| --- | --- | --- | --- | --- | --- | --- | --- | --- | --- |
| no pronounced increase | RQIKIWFQNRRMKWKK [penetratin] |  |  |  |  |  | did not affect | 12.3 |  |
| no pronounced increase | CC[C@H](C)[C@H](NC(=O)[C@H](CCC(=O)O)NC(=O)[C@H](CO)NC(=O)[C@@H](NC(=O)[C@@H](N)CO)C(C)C)C(=O)N[C@@H](CCC(N)=O)C(=O)N[C@@H](CC(C)C)C(=O)N[C@@H](CCSC)C(=O)N[C@@H](Cc1cnc[nH]1)C(=O)N[C@@H](CC(N)=O)C(=O)N[C@@H](CC(C)C)C(=O)NCC(=O)N[C@@H](CCCCN)C(=O)N[C@@H](Cc1cnc[nH]1)C(=O)N[C@@H](CC(C)C)C(=O)N[C@@H](CC(N)=O)C(=O)N[C@@H](CO)C(=O)N[C@@H](CCSC)C(=O)N[C@@H](CCC(=O)O)C(=O)N[C@@H](CCCN=C(N)N)C(=O)N[C@H](C(=O)N[C@@H](CCC(=O)O)C(=O)N[C@@H](Cc1c[nH]c2ccccc12)C(=O)N[C@@H](CC(C)C)C(=O)N[C@@H](CCCN=C(N)N)C(=O)N[C@@H](CCCCN)C(=O)N[C@@H](CCCCN)C(=O)N[C@@H](CC(C)C)C(=O)N[C@@H](CCC(N)=O)C(=O)N[C@@H](CC(=O)O)C(=O)N[C@H](C(=O)N[C@@H](Cc1cnc[nH]1)C(=O)N[C@@H](CC(N)=O)C(=O)N[C@@H](Cc1ccccc1)C(=O)O)C(C)C)C(C)C [PTH(1-34)] | 72.4 ± 3.0% | 69.9 ± 2.7% | did not increase | increase | no significant increase |  | 8.3 | remaining at 4 h, 5 µM [7, 9]: 66.6 ± 8.5%; remaining at 4 h, 5 µM [7, 14]: 71.7 ± 7.1%; remaining at 4 h, 5 µM [7, 10]: 73.6 ± 9.1%; peptide remaining after 4 h in physical mixture with penetratin, % of initially applied (Caco-2 cell monolayers [3]; [14]): 67.0 ± 2.6%; pH-dependent trend of penetratin-mediated delivery, Cmax of plasma PTH(1-34) and AUC ([5]; PTH(1-34) 1.2 mg/kg + penetratin 1:4, N = 6): pH 5 > pH 6.5 > pH 7.4; visible precipitation on mixing with penetratin (in words) [8]: not evident |

| Compound | ThT fluorescence above background, peptide alone (in words) [2] | peptide remaining after 4 h in physical mixture with penetratin, % of initially applied (Caco-2 cell monolayers [3]; [9]) | peptide remaining after 4 h in physical mixture with penetratin, % of initially applied (Caco-2 cell monolayers [3]; [10]) | effect on permeation of lowering the sample pH from 6.5 or 7.4 to pH 5, without penetratin (in words) (Caco-2 cell monolayers [4]) | penetratin-mediated transepithelial permeation / Papp (in words) (Caco-2 cell monolayers [4]; [11]) | penetratin-mediated transepithelial permeation / Papp (in words) (Caco-2 cell monolayers [4]; [12]) | blood glucose level, % of initial value (Male Sprague Dawley rats; [13]) | pI [6] | also measured |
| --- | --- | --- | --- | --- | --- | --- | --- | --- | --- |
| insulin: Human recombinant insulin (5807.6 g/mol, Zn-free) provided by Sanofi | increase | 89.9 ± 11.2% | remained stable | did not increase | increase | no significant increase | 86.9 ± 6.0% |  | volume mean size [1]: 1579 ± 319 nm; stability during incubation for 4 h (in words) (Caco-2 cell monolayers [3]; 5 µM insulin alone, pH 5, 6.5, or 7.4, apical incubation on Caco-2 monolayers, N = 3): remained stable; blood glucose level, % of initial value (Male Sprague Dawley rats; insulin 50 IU/kg in physical mixture with 720 µM penetratin (1:4), pH 5, 60 min time-point, N = 6, mean ± SD): 38.5 ± 23.8%; blood glucose level, % of initial value (Male Sprague Dawley rats; insulin 50 IU/kg in physical mixture with 720 µM penetratin (1:4), pH 6.5, after 60 min, N = 6, mean ± SD): 71.1 ± 17.8%; blood glucose level, % of initial value (Male Sprague Dawley rats; insulin 50 IU/kg in physical mixture with 720 µM penetratin (1:4), pH 7.4, after 60 min, N = 6, mean ± SD): 83.3 ± 21.2%; blood glucose level, % of initial value (Male Sprague Dawley rats; insulin (50 IU/kg) alone, pH 6.5, N = 6, mean ± SD): 88.9 ± 11.1%; blood glucose level (in words) (Male Sprague Dawley rats; insulin (50 IU/kg) alone, pH 7.4, N = 6): did not affect; plasma insulin concentration and AUC on co-administration with penetratin (in words) ([5]; insulin 50 IU/kg + penetratin 1:4, pH 5, compared to pH 6.5 and 7.4, N = 6): greatest effect; plasma insulin concentration and AUC on co-administration with penetratin (in words) ([5]; insulin 50 IU/kg + penetratin 1:4, pH 6.5, N = 6): slight increase; plasma insulin concentration and AUC on co-administration with penetratin (in words) ([5]; insulin 50 IU/kg + penetratin 1:4, pH 7.4, N = 6): did not differ from administration of insulin alone |
